Experimental data reported in PubChem BioAssay AID1963825 (Molecular Pharmacology Branch, DTP, NCI, 2024).

Assay: Anticancer human tumor 997537-175-T-J1-PDC patient-derived colon adenocarcinoma cell line growth inhibition [POLQ]
Details: 997537-175-T-J1-PDC complex spheroid viability, combination with POLQ inhibitors; for IC50: curve of first compound; for viability, T/C: stronger effect = lower value
Outline: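 Three-cell-type spheroids modelling solid tumor plus stroma served as the readout system; POL inhibitors were tested individually and in combination, concentration ranges set by clinical Cmax where known.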
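Also: luminescence signal used as a surrogate for viable cells; spheroids exposed to drugs for seven days before readout.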

COc1cccc(OCCCN)c1-c1cc(Nc2cnc(C#N)cn2)n[nH]1 + COC1C(OC(N)=O)C(O)C(Oc2ccc3c(O)c(NC(=O)c4ccc(O)c(CC=C(C)C)c4)c(=O)oc3c2C)OC1(C)C
IC50 (second compound 0.0316 µM): 46.8 nM
IC50 (second compound 0.1 µM): 121 nM
IC50 (second compound 0.316 µM): 77.8 nM
IC50 (second compound 1 µM): 32.4 nM
IC50 (second compound 3.16 µM): 57.5 nM
IC50 (second compound 10 µM): 59.9 nM
viability, T/C (second compound 0.0316 µM, first compound 0.00316 µM): 100%
viability, T/C (second compound 0.0316 µM, first compound 0.01 µM): 95.6%
viability, T/C (second compound 0.0316 µM, first compound 0.0316 µM): 59.9%
viability, T/C (second compound 0.0316 µM, first compound 0.1 µM): 28.1%
viability, T/C (second compound 0.0316 µM, first compound 0.316 µM): 33.6%
viability, T/C (second compound 0.0316 µM, first compound 1 µM): 30.7%
viability, T/C (second compound 0.1 µM, first compound 0.00316 µM): 106%
viability, T/C (second compound 0.1 µM, first compound 0.01 µM): 64.9%
viability, T/C (second compound 0.1 µM, first compound 0.0316 µM): 76.8%
viability, T/C (second compound 0.1 µM, first compound 0.1 µM): 43.2%
viability, T/C (second compound 0.1 µM, first compound 0.316 µM): 51.6%
viability, T/C (second compound 0.1 µM, first compound 1 µM): 17%
viability, T/C (second compound 0.316 µM, first compound 0.00316 µM): 107%
viability, T/C (second compound 0.316 µM, first compound 0.01 µM): 95%
viability, T/C (second compound 0.316 µM, first compound 0.0316 µM): 63.8%
viability, T/C (second compound 0.316 µM, first compound 0.1 µM): 55.3%
viability, T/C (second compound 0.316 µM, first compound 0.316 µM): 16.9%
viability, T/C (second compound 0.316 µM, first compound 1 µM): 30.2%
viability, T/C (second compound 1 µM, first compound 0.00316 µM): 105%
viability, T/C (second compound 1 µM, first compound 0.01 µM): 88%
viability, T/C (second compound 1 µM, first compound 0.0316 µM): 52.2%
viability, T/C (second compound 1 µM, first compound 0.1 µM): 24.1%
viability, T/C (second compound 1 µM, first compound 0.316 µM): 23.2%
viability, T/C (second compound 1 µM, first compound 1 µM): 24.4%
viability, T/C (second compound 3.16 µM, first compound 0.00316 µM): 104%
viability, T/C (second compound 3.16 µM, first compound 0.01 µM): 80.7%
viability, T/C (second compound 3.16 µM, first compound 0.0316 µM): 55.8%
viability, T/C (second compound 3.16 µM, first compound 0.1 µM): 48.7%
viability, T/C (second compound 3.16 µM, first compound 0.316 µM): 28.6%
viability, T/C (second compound 3.16 µM, first compound 1 µM): 47.1%
viability, T/C (second compound 10 µM, first compound 0.00316 µM): 95.2%
viability, T/C (second compound 10 µM, first compound 0.01 µM): 79.8%
viability, T/C (second compound 10 µM, first compound 0.0316 µM): 73.1%
viability, T/C (second compound 10 µM, first compound 0.1 µM): 31.4%
viability, T/C (second compound 10 µM, first compound 0.316 µM): 24.9%
viability, T/C (second compound 10 µM, first compound 1 µM): 28%
